{
  "source": "patent US20080051387A1",
  "about": "“TETRAHYDROPYRIDO[3,4-D]PYRIMIDINES AND RELATED ANALOGUES” (priority 2006, published 2008)",
  "data": [
    {"biological_target": "T1, chimeric human H3 receptor (Homo sapiens, UniProt Q9Y5N1)", "T1 construct": "rat Galpha-i2 (Gnai2, rat); made in house; host or cells: Sf9 insect cells (baculovirus); P2 membranes", "T1 sequence (Q9Y5N1 with tags, fused parts or gaps)": "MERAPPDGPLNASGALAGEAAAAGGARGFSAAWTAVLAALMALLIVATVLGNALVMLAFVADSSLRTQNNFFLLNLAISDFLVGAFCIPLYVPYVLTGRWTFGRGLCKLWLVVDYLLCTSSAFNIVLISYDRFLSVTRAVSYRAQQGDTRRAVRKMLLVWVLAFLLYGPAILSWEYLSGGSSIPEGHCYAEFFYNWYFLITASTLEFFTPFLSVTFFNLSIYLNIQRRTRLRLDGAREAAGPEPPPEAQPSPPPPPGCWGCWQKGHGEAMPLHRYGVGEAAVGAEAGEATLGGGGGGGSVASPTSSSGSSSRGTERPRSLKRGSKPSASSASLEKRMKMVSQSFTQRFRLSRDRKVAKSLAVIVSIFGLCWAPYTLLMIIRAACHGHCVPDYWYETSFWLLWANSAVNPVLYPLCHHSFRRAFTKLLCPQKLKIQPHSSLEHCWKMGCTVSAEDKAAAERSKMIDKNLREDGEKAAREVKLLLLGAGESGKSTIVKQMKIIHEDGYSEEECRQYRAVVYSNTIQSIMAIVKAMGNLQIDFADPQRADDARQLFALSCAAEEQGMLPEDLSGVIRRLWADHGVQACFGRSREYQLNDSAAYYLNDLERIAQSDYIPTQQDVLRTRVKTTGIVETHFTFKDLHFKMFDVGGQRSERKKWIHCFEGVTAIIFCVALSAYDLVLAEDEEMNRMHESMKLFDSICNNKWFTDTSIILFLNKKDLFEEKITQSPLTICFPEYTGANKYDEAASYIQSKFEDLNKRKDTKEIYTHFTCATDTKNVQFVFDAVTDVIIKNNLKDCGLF", "experiment": "Chimeric human H3 receptor screening GTP binding assay (inhibition of histamine-stimulated GTP-gamma35S binding, Example 8)", "assay_type": "biochemical", "details": "1 h; assay described in Example 8; symbol \"!\" in column headed Ki; read-out: Ki (\"!\": percent inhibition of agonist-induced GTP-gammaS binding to H3)", "summary_of_the_method": "(§1)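 Sf9 membranes co-expressing chimeric human H3 receptor and heterotrimeric G-protein (35 μg protein) incubated 60 min at room temperature with 4 μM compound, 1 μM histamine and 125 pM GTP-gamma35S in pH 7.4 buffer with 10 μM GDP. Filter-bound radioactivity, nonspecific (10 μM GTP-gammaS) subtracted, reported as % inhibition of histamine signal.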", "units": {"inhibition at 4 µM": "%"}, "values": [
      {"smiles": "Cc1cc(C(=O)N2CCc3cnc(N4CCN(C5CCC5)CC4)nc3CC2)c(C(F)(F)F)o1", "note": "[Compound 467, 2-(4-cyclobutylpiperazin-1-yl)-7-[5-methyl-2-(trifluoromethyl)-3-furoyl]-6,7,8,9-tetrahydro-5H-pyrimido[4,5-d]azepine]", "inhibition at 4 µM": "≥ 90"},
      {"smiles": "O=C(c1ccc(Cl)s1)N1CCc2cnc(N3CCN(C4CCC4)CC3)nc2CC1", "note": "[Compound 453, 7-[(5-chloro-2-thienyl)carbonyl]-2-(4-cyclobutylpiperazin-1-yl)-6,7,8,9-tetrahydro-5H-pyrimido[4,5-d]azepine]", "inhibition at 4 µM": "≥ 90"},
      {"smiles": "O=C(Cc1ccccc1F)N1CCc2cnc(N3CCN(C4CCC4)CC3)nc2CC1", "note": "[Compound 517, 2-(4-cyclobutylpiperazin-1-yl)-7-[(2-fluorophenyl)acetyl]-6,7,8,9-tetrahydro-5H-pyrimido[4,5-d]azepine]", "inhibition at 4 µM": "≥ 90"},
      {"smiles": "O=C(/C=C/c1cccc(F)c1F)N1CCc2cnc(N3CCN(C4CCC4)CC3)nc2CC1", "note": "[Compound 554, 2-(4-cyclobutylpiperazin-1-yl)-7-[(2E)-3-(2,3-difluorophenyl)prop-2-enoyl]-6,7,8,9-tetrahydro-5H-pyrimido[4,5-d]azepine]", "inhibition at 4 µM": "≥ 90"},
      {"smiles": "Cc1cccc(C)c1C(=O)N1CCc2cnc(N3CCN(C4CCC4)CC3)nc2CC1", "note": "[Compound 406, 2-(4-cyclobutylpiperazin-1-yl)-7-(2,6-dimethylbenzoyl)-6,7,8,9-tetrahydro-5H-pyrimido[4,5-d]azepine]", "inhibition at 4 µM": "≥ 90"},
      {"smiles": "O=C(c1ccccc1-c1ccccc1)N1CCc2cnc(N3CCN(C4CCC4)CC3)nc2CC1", "note": "[Compound 409, 7-(biphenyl-2-ylcarbonyl)-2-(4-cyclobutylpiperazin-1-yl)-6,7,8,9-tetrahydro-5H-pyrimido[4,5-d]azepine]", "inhibition at 4 µM": "≥ 90"},
      {"smiles": "CCCSc1ncccc1C(=O)N1CCc2cnc(N3CCN(C4CCC4)CC3)nc2CC1", "note": "[Compound 541, 2-(4-cyclobutylpiperazin-1-yl)-7-{[2-(propylthio)pyridin-3-yl]carbonyl}-6,7,8,9-tetrahydro-5H-pyrimido[4,5-d]azepine]", "inhibition at 4 µM": "≥ 90"}
    ]},
    {"biological_target": "T1, chimeric human H3 receptor", "experiment": "Chimeric human H3 receptor screening GTP binding assay (inhibition of histamine-stimulated GTP-gamma35S binding, Example 8)", "assay_type": "biochemical", "details": "1 h; assay of Example 8; symbol \"!\" in column headed Ki; read-out: percent inhibition of agonist-induced GTP-gammaS binding to H3", "summary_of_the_method": "as §1", "units": {"inhibition at 4 µM": "%"}, "values": [
      {"smiles": "COc1nc(N2CCN(C3CCC3)CC2)nc2c1CCN(C(=O)c1ccccc1)CC2", "note": "[Compound 270, 7-benzoyl-2-(4-cyclobutylpiperazin-1-yl)-4-methoxy-6,7,8,9-tetrahydro-5H-pyrimido[4,5-d]azepine]", "inhibition at 4 µM": "≥ 90"},
      {"smiles": "COc1ccc(C(=O)N2CCc3cnc(N4CCN(C5CCC5)CC4)nc3CC2)cc1Cl", "note": "[Compound 226, 7-(3-chloro-4-methoxybenzoyl)-2-(4-cyclobutylpiperazin-1-yl)-6,7,8,9-tetrahydro-5H-pyrimido[4,5-d]azepine]", "inhibition at 4 µM": "≥ 90"},
      {"smiles": "O=C(c1ccoc1)N1CCc2cnc(N3CCN(C4CCC4)CC3)nc2CC1", "note": "[Compound 197, 2-(4-cyclobutylpiperazin-1-yl)-7-(3-furoyl)-6,7,8,9-tetrahydro-5H-pyrimido[4,5-d]azepine]", "inhibition at 4 µM": "≥ 90"}
    ]},
    {"biological_target": "T1, chimeric human H3 receptor", "experiment": "Chimeric human H3 receptor screening GTP binding assay (inhibition of histamine-stimulated GTP-gamma35S binding, Example 8)", "assay_type": "biochemical", "details": "symbol ! in Ki; test compound 4 μM, 1 μM histamine; read-out: percent inhibition of agonist-induced GTP-gammaS binding to H3", "summary_of_the_method": "as §1", "units": {"inhibition at 4 µM": "%"}, "values": [
      {"smiles": "CC(c1ccc(N2CCOCC2)nc1)N1CCc2c(ncnc2N2CCN(C3CCC3)CC2)C1", "note": "(centres unmarked) [Compound 111, 4-(4-cyclobutylpiperazin-1-yl)-7-[1-(6-morpholin-4-ylpyridin-3-yl)ethyl]-5,6,7,8-tetrahydropyrido[3,4-d]pyrimidine]", "inhibition at 4 µM": "≥ 90"},
      {"smiles": "Cc1cccc(CN2CCc3ncnc(N4CCN(C5CCC5)CC4)c3CC2)n1", "note": "[Compound 153, 4-(4-cyclobutylpiperazin-1-yl)-7-[(6-methylpyridin-2-yl)methyl]-6,7,8,9-tetrahydro-5H-pyrimido[4,5-d]azepine]", "inhibition at 4 µM": "≥ 90"},
      {"smiles": "CCn1nc(C)cc1C(=O)N1CCc2c(ncnc2N2CCN(C3CCC3)CC2)C1", "note": "[Compound 40, 4-(4-cyclobutylpiperazin-1-yl)-7-[(1-ethyl-3-methyl-1H-pyrazol-5-yl)carbonyl]-5,6,7,8-tetrahydropyrido[3,4-d]pyrimidine]", "inhibition at 4 µM": "≥ 90"},
      {"smiles": "c1nc2c(c(N3CCN(C4CCC4)CC3)n1)CCN(Cc1ccc(N3CCCC3)cc1)C2", "note": "[Compound 100, 4-(4-cyclobutylpiperazin-1-yl)-7-(4-pyrrolidin-1-ylbenzyl)-5,6,7,8-tetrahydropyrido[3,4-d]pyrimidine]", "inhibition at 4 µM": "≥ 90"}
    ]}
  ]
}
